Measured values as given in ChEMBL document CHEMBL4507262, “Data for DCP probe A-1596586” (2021).

Experiments:
[1] = target: Activin receptor type-2B (Homo sapiens) (UniProt Q13705); conditions: Compound concentration 1000.0 nM
[2] = target: Calcium/calmodulin-dependent protein kinase kinase 1 (Homo sapiens) (UniProt Q8N5S9); conditions: Compound concentration 1000.0 nM
[3] = target: Endothelin receptor type B (Homo sapiens) (UniProt P24530); test: ETB (h) Eurofins-Cerep binding assay; design: ligand concentration 0.03 nM; conditions: filed as agonist, Compound concentration 10.0 uM
[4] = target: Melatonin receptor type 1B (Homo sapiens) (UniProt P49286); test: MT2 (ML1B) (h) Eurofins-Cerep binding assay; design: ligand concentration 0.05 nM; conditions: filed as agonist, Compound concentration 10.0 uM
[5] = target: MAP/microtubule affinity-regulating kinase 3 (Homo sapiens) (UniProt P27448); conditions: Compound concentration 1000.0 nM
[6] = tested on: Proto-oncogene tyrosine-protein kinase receptor Ret (Homo sapiens), P07949 [V804M]; conditions: Compound concentration 1000.0 nM
[7] = target: Serine/threonine-protein kinase 36 (Homo sapiens) (UniProt Q9NRP7); conditions: Compound concentration 1000.0 nM
[8] = target: Epithelial discoidin domain-containing receptor 1 (Homo sapiens) (UniProt Q08345); conditions: Compound concentration 1000.0 nM
[9] = target: Sodium-dependent noradrenaline transporter (Homo sapiens) (UniProt P23975); test: norepinephrine transporter (h) Eurofins-Cerep binding assay; design: ligand concentration 1 nM; conditions: filed as antagonist, Compound concentration 10.0 uM
[10] = tested on: Serine/threonine-protein kinase B-raf (Homo sapiens), P15056 [V600E]; conditions: Compound concentration 1000.0 nM
[11] = target: Protein kinase C theta type (Homo sapiens) (UniProt Q04759); conditions: Compound concentration 1000.0 nM
[12] = target: 5-hydroxytryptamine receptor 1B (Homo sapiens) (UniProt P28222); test: 5-HT1B(h) Eurofins-Cerep binding assay; design: ligand concentration 1 nM; conditions: filed as antagonist, Compound concentration 10.0 uM
[13] = target: D(2) dopamine receptor (Homo sapiens) (UniProt P14416); test: D2S (h) Eurofins-Cerep binding assay; design: ligand concentration 0.3 nM; conditions: filed as antagonist, Compound concentration 10.0 uM
[14] = target: Interferon-induced, double-stranded RNA-activated protein kinase (Homo sapiens) (UniProt P19525); conditions: Compound concentration 1000.0 nM
[15] = target: T1, Muscarinic acetylcholine receptor M4 (Homo sapiens) (UniProt P08173); test: M4 (h) Eurofins-Cerep binding assay; design: ligand concentration 0.2 nM; conditions: filed as antagonist, Compound concentration 10.0 uM
T1 sequence (whole entry): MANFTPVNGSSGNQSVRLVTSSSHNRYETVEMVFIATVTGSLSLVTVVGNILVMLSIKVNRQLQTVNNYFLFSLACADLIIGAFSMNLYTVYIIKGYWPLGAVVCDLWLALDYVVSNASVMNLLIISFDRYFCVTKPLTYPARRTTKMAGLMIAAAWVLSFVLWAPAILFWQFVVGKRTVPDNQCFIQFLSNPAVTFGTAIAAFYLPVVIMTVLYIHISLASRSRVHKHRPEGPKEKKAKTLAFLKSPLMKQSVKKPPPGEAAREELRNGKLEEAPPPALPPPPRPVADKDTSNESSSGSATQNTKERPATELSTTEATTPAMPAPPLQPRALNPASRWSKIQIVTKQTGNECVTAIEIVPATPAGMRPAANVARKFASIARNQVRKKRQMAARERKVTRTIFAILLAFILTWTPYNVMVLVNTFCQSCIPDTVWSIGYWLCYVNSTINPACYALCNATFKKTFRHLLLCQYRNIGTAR

[16] = target: Cyclin-dependent kinase-like 5 (Homo sapiens) (UniProt O76039); conditions: Compound concentration 1000.0 nM
[17] = target: Tyrosine-protein kinase ITK/TSK (Homo sapiens) (UniProt Q08881); conditions: Compound concentration 1000.0 nM
[18] = target: Hepatocyte growth factor receptor (Homo sapiens) (UniProt P08581); conditions: Compound concentration 1000.0 nM
[19] = target: Cyclin-dependent kinase 5 (Homo sapiens) (UniProt Q00535); conditions: Compound concentration 1000.0 nM
[20] = target: D(4) dopamine receptor (Homo sapiens) (UniProt P21917); conditions: Compound concentration 10.0 uM
[21] = target: Serine/threonine-protein kinase STK11 (Homo sapiens) (UniProt Q15831); conditions: Compound concentration 1000.0 nM
[22] = target: Serine/threonine-protein kinase PAK 4 (Homo sapiens) (UniProt O96013); conditions: Compound concentration 1000.0 nM
[23] = target: Tumor necrosis factor (Homo sapiens) (UniProt P01375); test: TNF-alpha (h) Eurofins-Cerep binding assay; design: ligand concentration 0.1 nM; conditions: filed as agonist, Compound concentration 10.0 uM
[24] = target: Beta-1 adrenergic receptor (Homo sapiens) (UniProt P08588); test: Beta1 (h) Eurofins-Cerep binding assay; design: ligand concentration 0.3 nM; conditions: filed as agonist, Compound concentration 10.0 uM
[25] = target: Beta-adrenergic receptor kinase 1 (Homo sapiens) (UniProt P25098); conditions: Compound concentration 1000.0 nM
[26] = target: Casein kinase II subunit alpha (Homo sapiens) (UniProt P68400); conditions: Compound concentration 1000.0 nM
[27] = target: Peripheral plasma membrane protein CASK (Homo sapiens) (UniProt O14936); conditions: Compound concentration 1000.0 nM
[28] = target: T2, Alpha-1B adrenergic receptor (Homo sapiens) (UniProt P35368); test: Alpha1B (h) Eurofins-Cerep binding assay; conditions: filed as antagonist, Compound concentration 10.0 uM
T2 sequence (whole entry): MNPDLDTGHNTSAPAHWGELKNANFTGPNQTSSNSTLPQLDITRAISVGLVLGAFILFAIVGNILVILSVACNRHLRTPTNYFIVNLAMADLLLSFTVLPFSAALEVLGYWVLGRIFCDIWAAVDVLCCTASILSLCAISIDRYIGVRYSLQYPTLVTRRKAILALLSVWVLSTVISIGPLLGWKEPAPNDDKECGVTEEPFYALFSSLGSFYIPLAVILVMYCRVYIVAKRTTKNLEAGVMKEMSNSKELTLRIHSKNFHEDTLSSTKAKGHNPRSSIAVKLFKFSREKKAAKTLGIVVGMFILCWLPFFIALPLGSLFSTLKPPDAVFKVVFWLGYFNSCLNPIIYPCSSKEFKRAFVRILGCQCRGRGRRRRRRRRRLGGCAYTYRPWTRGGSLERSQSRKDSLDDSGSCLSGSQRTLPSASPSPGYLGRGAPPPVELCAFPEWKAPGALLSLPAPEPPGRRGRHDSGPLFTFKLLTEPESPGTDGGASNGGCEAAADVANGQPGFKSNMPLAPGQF

[29] = target: Sulfonylurea receptors; K-ATP channels (Rattus norvegicus) (UniProt Q63563+P70673+Q63664+Q09429); test: KATP channel Eurofins-Cerep binding assay; assay type: protein-complex assay; design: ligand concentration 0.1 nM; conditions: filed as antagonist, Compound concentration 10.0 uM
[30] = target: Serine/threonine-protein kinase/endoribonuclease IRE1 (Homo sapiens) (UniProt O75460); conditions: Compound concentration 1000.0 nM
[31] = target: Serine/threonine-protein kinase Nek6 (Homo sapiens) (UniProt Q9HC98); conditions: Compound concentration 1000.0 nM
[32] = tested on: Receptor-type tyrosine-protein kinase FLT3 (Homo sapiens), P36888 [D835H]; conditions: Compound concentration 1000.0 nM

Chain of Sodium-dependent noradrenaline transporter (Homo sapiens) (P23975 whole entry): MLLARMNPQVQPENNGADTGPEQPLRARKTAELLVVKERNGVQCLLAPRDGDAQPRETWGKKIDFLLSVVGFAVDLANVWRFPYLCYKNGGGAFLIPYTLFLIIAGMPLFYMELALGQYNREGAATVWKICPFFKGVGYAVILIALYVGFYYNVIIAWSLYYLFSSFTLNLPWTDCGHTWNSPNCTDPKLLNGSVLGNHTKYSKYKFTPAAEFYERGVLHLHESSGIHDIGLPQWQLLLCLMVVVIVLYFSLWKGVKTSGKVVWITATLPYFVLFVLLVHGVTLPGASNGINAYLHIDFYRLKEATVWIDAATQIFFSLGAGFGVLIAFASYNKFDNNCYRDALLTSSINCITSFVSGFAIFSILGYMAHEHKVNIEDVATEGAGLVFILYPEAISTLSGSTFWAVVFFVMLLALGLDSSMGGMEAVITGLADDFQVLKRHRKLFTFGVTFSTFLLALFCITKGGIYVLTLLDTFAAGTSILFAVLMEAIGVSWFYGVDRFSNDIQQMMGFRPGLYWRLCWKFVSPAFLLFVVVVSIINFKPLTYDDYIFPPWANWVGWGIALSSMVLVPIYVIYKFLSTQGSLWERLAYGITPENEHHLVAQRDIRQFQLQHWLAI
Chain of Endothelin receptor type B (Homo sapiens) (P24530 whole entry): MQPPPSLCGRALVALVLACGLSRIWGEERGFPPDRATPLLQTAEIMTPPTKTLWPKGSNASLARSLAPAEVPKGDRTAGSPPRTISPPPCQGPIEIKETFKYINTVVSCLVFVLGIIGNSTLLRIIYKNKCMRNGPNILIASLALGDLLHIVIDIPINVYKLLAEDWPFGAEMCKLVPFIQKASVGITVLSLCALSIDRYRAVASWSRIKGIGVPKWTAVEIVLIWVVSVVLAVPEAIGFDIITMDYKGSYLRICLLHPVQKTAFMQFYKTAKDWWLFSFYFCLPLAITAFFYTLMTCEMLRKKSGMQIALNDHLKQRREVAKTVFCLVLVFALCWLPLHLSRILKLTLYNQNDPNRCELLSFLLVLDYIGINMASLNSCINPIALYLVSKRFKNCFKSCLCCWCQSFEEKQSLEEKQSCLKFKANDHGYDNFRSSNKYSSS
Chain of Melatonin receptor type 1B (Homo sapiens) (P49286 whole entry): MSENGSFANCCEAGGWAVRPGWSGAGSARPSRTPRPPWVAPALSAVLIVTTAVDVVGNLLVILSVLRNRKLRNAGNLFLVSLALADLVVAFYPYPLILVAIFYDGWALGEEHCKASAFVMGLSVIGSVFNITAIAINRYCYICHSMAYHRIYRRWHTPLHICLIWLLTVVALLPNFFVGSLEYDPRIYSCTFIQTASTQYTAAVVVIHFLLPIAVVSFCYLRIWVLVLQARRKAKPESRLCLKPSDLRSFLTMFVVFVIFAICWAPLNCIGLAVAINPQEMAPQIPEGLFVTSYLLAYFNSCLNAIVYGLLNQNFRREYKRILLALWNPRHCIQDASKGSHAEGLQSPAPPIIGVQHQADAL
Chain of MAP/microtubule affinity-regulating kinase 3 (Homo sapiens) (P27448 whole entry, looked up): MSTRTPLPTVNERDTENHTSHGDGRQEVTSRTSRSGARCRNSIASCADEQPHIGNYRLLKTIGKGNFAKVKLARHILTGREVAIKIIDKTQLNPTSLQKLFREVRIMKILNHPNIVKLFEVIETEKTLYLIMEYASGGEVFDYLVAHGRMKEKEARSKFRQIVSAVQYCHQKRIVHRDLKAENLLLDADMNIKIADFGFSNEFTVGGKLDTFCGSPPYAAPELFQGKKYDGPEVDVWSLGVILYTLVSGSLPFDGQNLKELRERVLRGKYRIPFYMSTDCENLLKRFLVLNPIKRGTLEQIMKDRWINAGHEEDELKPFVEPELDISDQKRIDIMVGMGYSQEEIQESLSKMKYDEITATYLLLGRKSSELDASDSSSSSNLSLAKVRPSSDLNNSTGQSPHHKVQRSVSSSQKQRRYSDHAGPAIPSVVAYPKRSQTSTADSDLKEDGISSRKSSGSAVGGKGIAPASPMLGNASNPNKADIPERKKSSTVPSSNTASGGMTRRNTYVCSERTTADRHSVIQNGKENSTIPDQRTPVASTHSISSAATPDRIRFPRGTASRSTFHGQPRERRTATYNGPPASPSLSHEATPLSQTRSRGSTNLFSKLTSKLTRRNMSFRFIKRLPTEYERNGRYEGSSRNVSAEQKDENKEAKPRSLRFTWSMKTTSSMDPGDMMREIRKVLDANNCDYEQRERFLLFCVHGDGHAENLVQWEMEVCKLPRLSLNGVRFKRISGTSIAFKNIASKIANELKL
Chain of Tumor necrosis factor (Homo sapiens) (P01375 whole entry): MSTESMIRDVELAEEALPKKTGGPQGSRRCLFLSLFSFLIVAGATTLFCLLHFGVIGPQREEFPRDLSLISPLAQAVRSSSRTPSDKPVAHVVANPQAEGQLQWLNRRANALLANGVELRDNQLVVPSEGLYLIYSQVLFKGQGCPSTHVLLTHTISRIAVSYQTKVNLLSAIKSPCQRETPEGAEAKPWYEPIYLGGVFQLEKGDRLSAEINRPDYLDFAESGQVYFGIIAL
Chain of D(4) dopamine receptor (Homo sapiens) (P21917 whole entry): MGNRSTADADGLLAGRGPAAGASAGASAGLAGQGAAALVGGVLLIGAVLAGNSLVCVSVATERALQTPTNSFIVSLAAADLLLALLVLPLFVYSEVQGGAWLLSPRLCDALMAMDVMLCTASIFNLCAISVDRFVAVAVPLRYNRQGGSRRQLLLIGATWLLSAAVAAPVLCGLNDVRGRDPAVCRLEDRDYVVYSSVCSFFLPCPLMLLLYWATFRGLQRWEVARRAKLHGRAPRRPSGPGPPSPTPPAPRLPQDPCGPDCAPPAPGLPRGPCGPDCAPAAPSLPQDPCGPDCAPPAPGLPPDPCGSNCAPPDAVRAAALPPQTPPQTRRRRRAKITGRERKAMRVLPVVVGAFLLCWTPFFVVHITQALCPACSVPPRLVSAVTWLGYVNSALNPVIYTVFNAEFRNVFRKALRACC
Chain of Serine/threonine-protein kinase PAK 4 (Homo sapiens) (O96013 whole entry, looked up): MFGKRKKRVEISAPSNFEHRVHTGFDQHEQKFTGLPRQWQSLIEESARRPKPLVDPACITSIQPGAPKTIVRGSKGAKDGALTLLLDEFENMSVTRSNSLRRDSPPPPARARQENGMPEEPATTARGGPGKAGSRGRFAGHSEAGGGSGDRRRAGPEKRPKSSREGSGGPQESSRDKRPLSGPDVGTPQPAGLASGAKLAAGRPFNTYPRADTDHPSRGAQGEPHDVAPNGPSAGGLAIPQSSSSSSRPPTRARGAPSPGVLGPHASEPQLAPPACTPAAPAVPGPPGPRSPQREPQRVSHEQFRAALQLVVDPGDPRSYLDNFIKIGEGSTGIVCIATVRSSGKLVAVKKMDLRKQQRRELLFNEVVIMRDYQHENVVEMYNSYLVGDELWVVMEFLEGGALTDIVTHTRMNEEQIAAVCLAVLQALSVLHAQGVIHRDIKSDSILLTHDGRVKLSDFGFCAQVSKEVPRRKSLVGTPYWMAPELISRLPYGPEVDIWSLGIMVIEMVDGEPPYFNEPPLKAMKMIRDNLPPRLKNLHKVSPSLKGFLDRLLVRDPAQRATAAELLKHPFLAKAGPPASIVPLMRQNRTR
Chain of Serine/threonine-protein kinase B-raf (Homo sapiens), P15056 [V600E] (P15056 whole entry V600E): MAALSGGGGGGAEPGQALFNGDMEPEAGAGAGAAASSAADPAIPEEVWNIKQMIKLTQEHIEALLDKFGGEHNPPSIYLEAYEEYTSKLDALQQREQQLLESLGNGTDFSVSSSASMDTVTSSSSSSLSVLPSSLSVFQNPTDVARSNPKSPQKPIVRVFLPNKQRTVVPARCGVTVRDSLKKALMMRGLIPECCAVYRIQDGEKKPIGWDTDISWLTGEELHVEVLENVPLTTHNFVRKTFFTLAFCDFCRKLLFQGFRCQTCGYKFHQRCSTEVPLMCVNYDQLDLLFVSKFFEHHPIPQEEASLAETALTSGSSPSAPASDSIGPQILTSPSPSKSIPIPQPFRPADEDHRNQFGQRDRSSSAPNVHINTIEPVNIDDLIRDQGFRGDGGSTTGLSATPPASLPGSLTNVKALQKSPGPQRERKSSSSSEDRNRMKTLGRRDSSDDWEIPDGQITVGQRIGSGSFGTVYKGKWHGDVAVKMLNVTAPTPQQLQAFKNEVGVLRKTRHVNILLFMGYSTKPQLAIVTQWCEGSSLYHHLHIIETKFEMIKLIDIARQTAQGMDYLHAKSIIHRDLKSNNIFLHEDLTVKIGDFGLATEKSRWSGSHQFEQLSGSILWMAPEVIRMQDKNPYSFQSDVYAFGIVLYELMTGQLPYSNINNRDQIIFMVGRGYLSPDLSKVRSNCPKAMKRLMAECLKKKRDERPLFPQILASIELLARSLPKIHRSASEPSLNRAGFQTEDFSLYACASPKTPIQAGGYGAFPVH
Chain of Beta-adrenergic receptor kinase 1 (Homo sapiens) (P25098 whole entry): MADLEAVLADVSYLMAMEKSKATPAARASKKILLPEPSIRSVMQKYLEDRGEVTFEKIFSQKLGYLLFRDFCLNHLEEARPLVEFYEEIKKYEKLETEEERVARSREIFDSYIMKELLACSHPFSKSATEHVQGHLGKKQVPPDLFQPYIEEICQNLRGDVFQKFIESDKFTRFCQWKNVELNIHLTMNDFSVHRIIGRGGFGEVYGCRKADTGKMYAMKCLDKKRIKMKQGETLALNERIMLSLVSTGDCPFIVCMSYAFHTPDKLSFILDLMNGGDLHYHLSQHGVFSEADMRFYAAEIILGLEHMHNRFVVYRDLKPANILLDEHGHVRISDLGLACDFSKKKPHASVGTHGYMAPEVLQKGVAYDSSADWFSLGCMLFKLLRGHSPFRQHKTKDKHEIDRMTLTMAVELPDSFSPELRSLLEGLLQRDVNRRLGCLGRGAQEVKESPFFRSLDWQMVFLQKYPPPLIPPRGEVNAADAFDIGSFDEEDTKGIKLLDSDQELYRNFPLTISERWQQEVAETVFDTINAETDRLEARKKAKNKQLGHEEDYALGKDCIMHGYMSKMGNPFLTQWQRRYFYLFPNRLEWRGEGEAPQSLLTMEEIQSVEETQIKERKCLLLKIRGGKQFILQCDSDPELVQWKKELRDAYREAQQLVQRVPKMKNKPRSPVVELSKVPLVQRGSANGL

Compound | residual activity [1] [%] | residual activity [2] [%] | % Inhibition of Control Specific Binding (Mean n=2) [3] [%] | % Inhibition of Control Specific Binding (Mean n=2) [4] [%] | residual activity [5] [%] | residual activity [6] [%] | residual activity [7] [%] | residual activity [8] [%] | % Inhibition of Control Specific Binding (Mean n=2) [9] [%] | residual activity [10] [%] | residual activity [11] [%] | % Inhibition of Control Specific Binding (Mean n=2) [12] [%] | % Inhibition of Control Specific Binding (Mean n=2) [13] [%] | residual activity [14] [%] | % Inhibition of Control Specific Binding (Mean n=2) [15] [%] | residual activity [16] [%] | residual activity [17] [%] | residual activity [18] [%] | residual activity [19] [%] | inhibition [20] [%] | further results
COc1ccc2c(c1)O[C@H](c1ccc(OC)c(OC)c1)C[C@@H]2NC(=O)C1(c2ccc3c(c2)OC(F)(F)O3)CC1 [A-1596584] | 100 | 100 | -9 | 38 | 95 | 100 | 94 | 100 | 18.2 | 93 | 100 | -8.6 | 18.7 | 100 | -3.9 | 100 | 100 | 87 | 100 | -6.5 | residual activity [21]: 100%; residual activity [22]: 100%; % Inhibition of Control Specific Binding (Mean n=2) [23]: -3.3%; % Inhibition of Control Specific Binding (Mean n=2) [24]: -2.1%; residual activity [25]: 84%; residual activity [26]: 100%; residual activity [27]: 85%; % Inhibition of Control Specific Binding (Mean n=2) [28]: 17.4%; % Inhibition of Control Specific Binding (Mean n=2) [29]: 5.1%; residual activity [30]: 100%; residual activity [31]: 100%; residual activity [32]: 100%
COc1ccc2c(c1)O[C@@H](c1ccc(OC)c(OC)c1)C[C@H]2NC(=O)C1(c2ccc3c(c2)OC(F)(F)O3)CC1 [A-1596586] | 96 | 89 | -9.1 | 41 | 100 | 95 | 100 | 100 | 23.5 | 100 | 98 | 2.8 | 27.7 | 100 | 6.1 | 85 | 86 | 100 | 100 | -7.47 | residual activity [21]: 65%; residual activity [22]: 89%; % Inhibition of Control Specific Binding (Mean n=2) [23]: -9.2%; % Inhibition of Control Specific Binding (Mean n=2) [24]: 3.1%; residual activity [25]: 100%; residual activity [26]: 94%; residual activity [27]: 100%; % Inhibition of Control Specific Binding (Mean n=2) [28]: 4.8%; % Inhibition of Control Specific Binding (Mean n=2) [29]: -1.9%; residual activity [30]: 100%; residual activity [31]: 100%; residual activity [32]: 100%
